The values below come from patent publication US11000056B2, “Bioactive serum fraction from achachairu (Garcinia humilis) which is free of benzophenone and proteins” (ISP Investments LLC, priority 2015, dated 2021).

One series deals with IL-18. In words: IL18/Baseline, skin sensitization potential in HEK. It is filed as cell-based, human. Particulars: HEK cultures, positive control. On the procedure:
It is possible for a test article to not be cytotoxic, and yet be unsafe due to provoking an allergic reaction upon skin contact. Typically, initial exposure to an allergen sensitizes the immune system, and following exposures cause an allergic response. […] We therefore evaluated IL-18 production in HEK treated with test articles to determine their sensitization potential.
Normal human adult epidermal keratinocytes (HEK) were cultured as described in Example 6 above. […] The cell lysates were collected, and IL-18 was quantified using Human IL-18 ELISA Kit (Catalog #7620, produced by MBL International Co., Woburn, Mass., USA). […] Fold changes of IL-18 levels between test articles and respective vehicle controls were calculated and compared to pPD (positive control). […]

Series [1] relates to endocrine (androgenic/estrogenic) activity. Particulars: cited from earlier work.
The conditions of series [2]: laboratory animals; cited from earlier work.
The conditions of series [3]: oral and dermal routes; cited from earlier work.

SMILES strings stand for the structures.

As to `Nc1ccc(N)cc1` [benchmark sensitizer, para-phenylenediamine], in the series on IL-18, the “IL-18 induction compared to vehicle control (in words)” value is “significantly induced IL-18”.
As for `COc1ccc(C(=O)c2ccccc2)c(O)c1` [BP-3, Benzophenone-3], the “Anti-estrogenic activity (in words)” value in series [1] was “anti-estrogenic activity”. Also, in series [1] (receptor binding assay), the “Anti-androgenic activity (in words)” value is on record as “strong anti-androgenic” and the “Estrogenic activity (in words)” value is reported as “weak estrogenic”. In series [2], the “Hormonal activity (in words)” value is “weak hormonal activity”. In addition, the “Absorption (in words)” value in series [3] is “rapidly absorbed via oral and dermal routes”.
